Results from patent US20210253603A1, “MAIN GROUP METAL COMPLEX AND ITS PREPARATION METHOD AND USE” (PEKING UNIVERSITY, priority 2018, published 2021).

What was measured:
HeLa [1] = experiment: In vitro anticancer activities of complexes (Experiment 2); type: cell-based, human; conditions: 24 hours
Text: (§1) The cell lines used in the experiments were obtained from Peking University.

MCF7 [2] = experiment: as above; type: cell-based, human; conditions: MCF7, 24 hours
Text: as §1

A375 = experiment: as above; type: cell-based, human; conditions: A375, 24 hours
Text: as §1

A549 [3] = experiment: as above; type: cell-based, human; conditions: A549, 24 hours
Text: as §1

SW480 = experiment: as above; type: cell-based, human; conditions: SW480, 24 hours
Text: as §1

[4] = tested on: human umbilical vein endothelial cells HUVEC; experiment: as above; type: cell-based; conditions: 24 hours
Experimental: as §1
The safety index (SI) was calculated according to the following equation:
^bSafety Index (SI)=IC50(HUVEC)/IC50(Hela)

[5] = tested on: normal colonic epithelial cells NCM460; experiment: as above; type: cell-based; conditions: NCM460, 24 hours
Text: as §1

human microglia CHEM5 = experiment: as above; type: cell-based; conditions: CHEM 5, 24 hours
Text: as §1

HepG2 = experiment: as above; type: cell-based; conditions: HepG 2, 24 hours
Text: as §1

A549 [6] = experiment: Cytotoxicity, CCK-8 kit, multi-cell lines (Experiment 1); conditions: A549, 24 hours
[7] = tested on: HEK293 human renal epithelial cell line; experiment: as above; type: cell-based; conditions: HEK293, 24 hours
[8] = tested on: A375 human malignant melanoma cell line; experiment: as above; conditions: A375, 24 hours
Experimental: (§2) The cells were cultured in a cell incubator containing 5% CO2 under the atmosphere of saturated steam at a constant temperature of 37° C. The medium used was a high-sugar Dulbecco's modified Eagle's medium containing 10% fetal bovine serum, 100 μg/mL penicillin and 100 U/mL streptomycin. The cells were grown in a six-well culture plate and passaged every other day. The cytotoxicity of the complex was evaluated by the CCK-8 kit, in which the cells were passed to a 96-well plate containing about 25,000 of cells and 200 µL of medium in each well. After the cells had grown stably and adherently, the medium was changed to complete mediums with different concentrations of the complex to be detected, and a 3-well parallel experiment was performed for each concentration. After culturing in the incubator for 24 hours, the medium was removed and the cells were washed with 100 L of PBS buffer (pH=7.4) for 3 times. Subsequently, 100 L mixture of 10% CCK-8 solution and 90% serum-free medium was added into both the test wells and the control wells, and then was placed in an incubator for culturing. After about 1 hour, the absorption of 450 nm wavelength light in the test and control wells were measured by using a microplate reader, and the cell viabilities (CV) under different concentrations of the complex were calculated according to the following formula: […]

HeLa tumors = experiment: In vivo tumor suppression experiment; parameters: species or system nude mice; conditions: after 21 days of treatment, once every 2 days
Experimental: Nude mice carrying HeLa tumors were divided into 4 […], each with 8 mice. […] The dosage was […], and the administration frequency was once every 2 days. The volume of the tumor was calculated with the length and width of the tumor according to the following formula:
Tumor volume (mm^3)=½×length×width^2.
After 21 days, the nude mice of each group were died and dissected. The tumor inhibition was calculated according to the following formula: […]
in which Wc and Wt were the masses of the tumors in the control group and the experimental group, respectively.

[9] = tested on: HepG2 liver cancer cell lines; experiment: Cytotoxicity, CCK-8 kit, multi-cell lines (Experiment 1); type: cell-based; conditions: HepG 2, 24 hours
[10] = tested on: MDA-MB-231 highly metastatic breast cancer cell line; experiment: as above; type: cell-based; conditions: MDA-MB-231, 24 hours
[11] = H&E staining analysis of major organs; type: in vivo, nude mice; conditions: after treatment
Text: Further, the parts such as heart, spleen, lung, liver, and kidney were subjected to the H&E staining analysis.

[12] = tested on: DU145 prostate cancer cells; experiment: Cytotoxicity, CCK-8 kit, multi-cell lines (Experiment 1); type: cell-based; conditions: DU145, 24 hours
[13] = Hematological analysis of liver and kidney function; type: in vivo, nude mice; conditions: blood samples after treatment
Text: The research indicators included alanine aminotransferase (ALT), urea nitrogen (BUN), triglycerides (TG), creatine kinase (CK), aspartate aminotransferase (AST), creatinine (CREA), high Density lipoprotein (HDLC), and lactate dehydrogenase (LDH).
The kidney function was related to the blood indicators of BUN and CREA and the liver function. The results about alanine aminotransferase (ALT) and aspartate aminotransferase (AST) in the blood of nude mice were shown in FIG. 8.

Raw264.7 = experiment: Cytotoxicity, CCK-8 kit, multi-cell lines (Experiment 1); type: cell-based; conditions: Raw264.7, 24 hours
[14] = tested on: COS7 renal epithelial cells; experiment: as above; type: cell-based; conditions: COS7, 24 hours
HeLa [15] = experiment: as above; conditions: 24 hours
Experimental: as §2

MCF7 [16] = experiment: as above; conditions: MCF7, 24 hours
Experimental: as §2

Structure (SMILES) | IC50 (HeLa [1]) [µM] | IC50 (MCF7 [2]) [µM] | IC50 (A375) [µM] | IC50 (A549 [3]) [µM] | IC50 (SW480) [µM] | IC50 [4] [µM] | IC50 [5] [µM] | IC50 (human microglia CHEM5) [µM] | IC50 (HepG2) [µM] | further results
CC#[N+][Ga-3]123([N+]#CC)[O]c4c(ccc5c4SCCN5C)C=[N+]1C(C#N)=C(C#N)[N+]2=Cc1ccc2c(c1[O]3)SCCN2C.Cl [Complex 10] | 87.7 | 61.7 | 91.2 | 124 | 451 | 332 | 322 | 51.9 | 72.7 | –
CC#[N+][Ga-3]123([N+]#CC)[O]c4cc(N5CCCC5)ccc4C=[N+]1C(C#N)=C(C#N)[N+]2=Cc1ccc(N2CCCC2)cc1[O]3.Cl [Complex 7] | 8.61 | 14.2 | 1.4 | 3.56 | 7.58 | 2.47 | 23.1 | 5.71 | 10.3 | –
CC#[N+][Ga-3]123([N+]#CC)[O]c4cc(N(C)CCCC)ccc4C=[N+]1C(C#N)=C(C#N)[N+]2=Cc1ccc(N(C)CCCC)cc1[O]3.Cl [Complex 13] | 21.5 | 1.74 | 0.9 | 2.72 | 4.1 | 3.5 | 20.6 | 2.28 | 20.9 | –
CC#[N+][Ga-3]123([N+]#CC)[O]c4cc(N(C)C)ccc4C=[N+]1C(C#N)=C(C#N)[N+]2=Cc1ccc(N(C)C)cc1[O]3.Cl [Complex 6] | 1.38 | 0.47 | 0.07 | 1.38 | 4.85 | 4.09 | 6.44 | 2.27 | 7.75 | –
CC#[N+][Ga-3]123([N+]#CC)[O]c4ccccc4C=[N+]1c1ccccc1[N+]2=Cc1ccccc1[O]3.Cl [Complex 14] | 19.5 | 53 | 24 | 76.5 | 257 | 163 | 212 | 65.1 | 38.6 | –
CC#[N+][Ga-3]123([N+]#CC)[O]c4cc(N(CC)CC)ccc4C=[N+]1c1ccccc1[N+]2=Cc1ccc(N(CC)CC)cc1[O]3.Cl [Complex 9] | 12.4 | 34.8 | 1.37 | 1.22 | 4.89 | 9.33 | 33.5 | 1.81 | 46.1 | –
N.N.[Cl][Pt][Cl] [cisplatin, reference compound] | – | – | – | – | – | – | – | – | – | IC50 (A549 [6]): 9.4 ± 1.5 µM; IC50 [7]: 2 ± 0.1 µM; IC50 [8]: 3.4 ± 0.3 µM; tumor inhibition (HeLa tumors): 29.9%; IC50 [9]: 5.3 ± 0.1 µM; IC50 [10]: 27 ± 1.3 µM; H&E staining of liver and kidney [11]: liver edema and degeneration and kidney swelling; IC50 [12]: 2.7 ± 0.1 µM; effects on liver and kidney function (blood indicators ALT, AST, BUN, CREA) [13]: acute toxicity against the liver and the kidney; IC50 (Raw264.7): 10.1 ± 1.2 µM; IC50 [14]: 6.7 ± 0.6 µM; IC50 (HeLa [15]): 5.3 ± 0.3 µM; IC50 (MCF7 [16]): 9.1 ± 0.9 µM
CC#[N+][Ga-3]123([N+]#CC)[O]c4cc5c(cc4C=[N+]1C(C#N)=C(C#N)[N+]2=Cc1cc2c(cc1[O]3)N(C)CCS2)SCCN5C.Cl [Complex 12] | 45.8 | 43.5 | 10.8 | 39.3 | 42.6 | 58.9 | 89.9 | 44.7 | 34.6 | –
CC#[N+][Ga-3]123([N+]#CC)[O]c4cc(N(CC)CC)ccc4C=[N+]1c1ccncc1[N+]2=Cc1ccc(N(CC)CC)cc1[O]3.Cl [Complex 15] | 97.4 | 204 | 215 | 273 | 325 | 75.8 | 340 | 298 | 89.7 | –
CC#[N+][Ga-3]123([N+]#CC)[O]c4ccccc4C=[N+]1C(C#N)=C(C#N)[N+]2=Cc1ccccc1[O]3.Cl [Complex 4] | 75.3 | 134 | 2.2 | 1.16 | 0.59 | 6.37 | 27.7 | 1.64 | 43.5 | –
C#CCN(C)c1ccc2c(c1)[O][Ga-3]13([N+]#CC)([N+]#CC)[O]c4cc(N(C)CC#C)ccc4C=[N+]1C(C#N)=C(C#N)[N+]3=C2.Cl [Complex 8] | 260 | 190 | 229 | 139 | 572 | 203 | 71 | 236 | 291 | –
C#CCN(C)c1ccc2c(c1)[O][Ga-3]13([N+]#CC)([N+]#CC)[O]c4cc(N(CC)CC)ccc4C=[N+]1C(C#N)=C(C#N)[N+]3=C2.Cl [Complex 2] | 6.35 | 5.29 | 0.83 | 2.29 | 2.2 | 1.88 | 4.26 | 2.82 | 8.19 | –
